According to publication PMC2680345 (Journal of Antimicrobial Chemotherapy, 2009):
Like-named read-outs stand apart in the source and are kept apart here.

Assays:
[1] = clinical; conditions: both, human, in vivo
[2] = cited from earlier work
[3] = for θ2 (factor associated with the covariate) / θ1 (typical value of V/F) / θ1 (typical value of ka): univariate model
[4] = Plasma concentrations; format: in vivo; conditions: human, oral, ritonavir AUC0–24, median, external dataset, 18 HIV-infected patients, atazanavir/ritonavir/saquinavir 200/100/1600 mg once daily
[5] = final model, 300/100 mg once daily
[6] = influence of Black-African ethnicity on V/F: V = θ1 * θ2^AFR
[7] = influence of Black-African ethnicity on ka: ka = θ1 * θ2^AFR
[8] = influence of HIV status on V/F: V = θ1 * θ2^HIV
[9] = influence of HIV status on ka: ka = θ1 * θ2^HIV
[10] = influence of Hispanic ethnicity on ka: ka = θ1 * θ2^HSP
[11] = influence of RTV AUC0–24 on V/F: V = θ1 * (RTV/7.52)^θ2
[12] = influence of SQV on V/F: V = θ1 * θ2^SQV
[13] = influence of TDF on V/F: V = θ1 * θ2^TDF
[14] = influence of TDF on ka: ka = θ1 * θ2^TDF
[15] = influence of sex on V/F: V = θ1 * θ2^SEX
[16] = influence of weight on V/F: V = θ1 + θ2 * (WT − 76.2)

COC(=O)N[C@H](C(=O)N[C@@H](Cc1ccccc1)[C@@H](O)CN(Cc1ccc(-c2ccccn2)cc1)NC(=O)[C@@H](NC(=O)OC)C(C)(C)C)C(C)(C)C [atazanavir, Atazanavir]
Vd/F [1]: 103 L
AUC0–24 lower in HIV patients compared with healthy individuals [2]: ~20%
minimum concentrations lower in HIV patients compared with healthy individuals [2]: ~50%
peak concentrations lower in HIV patients compared with healthy individuals [2]: ~30%
half-life ([2]; population analysis by Colombo et al.): 8.8 h
IIV CL/F (inter-individual variability) ([3]; basic model): 48%
IIV V/F (inter-individual variability) ([3]; basic model): 48%
IIV ka (inter-individual variability) ([3]; basic model): 154%
CL/F (apparent oral clearance) ([3]; basic model (no covariates), 300/100 mg once daily): 7.6 L/h
mean individual predicted CL/F ([3]; females): 6.40 L/h
IIV CL/F (inter-individual variability) [3, 5]: 29%
IIV V/F (inter-individual variability) [3, 5]: 48%
IIV ka (inter-individual variability) [3, 5]: 154%
reduction of variability of CL/F by inclusion of ritonavir AUC0–24 as covariate ([3]; final versus basic model): 19%
mean individual predicted CL/F ([3]; males): 8.99 L/h
lower mean individual predicted CL/F in females compared with males ([3]; not significant): ~29%
θ2 (factor associated with the covariate) ([3]; influence of Black-African ethnicity on CL/F: CL = θ1 * θ2^AFR): 0.91
θ1 (typical value of V/F) [3, 6]: 100
θ2 (factor associated with the covariate) [3, 6]: 1.23
θ1 (typical value of ka) [3, 7]: 3.28
θ2 (factor associated with the covariate) [3, 7]: 1.44
θ2 (factor associated with the covariate) ([3]; influence of HIV status on CL/F: CL = θ1 * θ2^HIV): 0.80
θ1 (typical value of V/F) [3, 8]: 118
θ2 (factor associated with the covariate) [3, 8]: 0.81
θ1 (typical value of ka) [3, 9]: 2.77
θ2 (factor associated with the covariate) [3, 9]: 1.42
θ2 (factor associated with the covariate) ([3]; influence of Hispanic ethnicity on CL/F: CL = θ1 * θ2^HSP): 1.60
θ1 (typical value of ka) [3, 10]: 2.81
θ2 (factor associated with the covariate) [3, 10]: 4.42
θ2 (factor associated with the covariate) ([3]; influence of RTV AUC0–24 on CL/F: CL = θ1 * (RTV/7.52)^θ2): −0.84
θ1 (typical value of V/F) [3, 11]: 104
θ2 (factor associated with the covariate) [3, 11]: −0.50
θ2 (factor associated with the covariate) ([3]; influence of SQV (1600 mg once daily) on CL/F: CL = θ1 * θ2^SQV): 0.67
θ1 (typical value of V/F) [3, 12]: 123
θ2 (factor associated with the covariate) [3, 12]: 0.64
θ2 (factor associated with the covariate) ([3]; influence of TDF (300 mg once daily) on CL/F: CL = θ1 * θ2^TDF): 0.83
θ1 (typical value of V/F) [3, 13]: 108
θ2 (factor associated with the covariate) [3, 13]: 0.71
θ1 (typical value of ka) [3, 14]: 3.43
θ2 (factor associated with the covariate) [3, 14]: 1.10
θ2 (factor associated with the covariate) ([3]; influence of sex on CL/F: CL = θ1 * θ2^SEX): 0.77
θ1 (typical value of V/F) [3, 15]: 98.7
θ2 (factor associated with the covariate) [3, 15]: 1.26
θ2 (factor associated with the covariate) ([3]; influence of weight on CL/F: CL = θ1 + θ2 * (WT − 76.2)): 0.13
θ1 (typical value of V/F) [3, 16]: 105
θ2 (factor associated with the covariate) [3, 16]: 1.26

CC(C)c1nc(CN(C)C(=O)N[C@H](C(=O)N[C@@H](Cc2ccccc2)C[C@H](O)[C@H](Cc2ccccc2)NC(=O)OCc2cncs2)C(C)C)cs1 [ritonavir]
AUC(0-t) [4]: 9060 ng·h/mL
